Common to all, as to type: cell-based
One experiment addresses T1, KRAS G12V-cRAF (Homo sapiens, UniProt P01116, G12V).
T1 construct: expressed in transfected cells
The experiment is described as follows: Cellular KRAS G12V-cRAF Binding Inhibition Assay (NanoBRET, AD293 stable cells). To be noted: 3 h incubation. The procedure: NanoLuc® luciferase was used as the energy donor, and NanoBRET™ 618 fluorescent ligand labeled with the HaloTag® protein was used as the energy acceptor to detect protein-protein interactions in living cells. […] Except for wells with medium added as a blank control, NanoBRET™ 618 fluorescent ligand was added to all other wells, and the plates were cultured overnight in a cell culture incubator. […] The luminescence data were calculated and converted into inhibition percent. The inhibition percent of KRAS G12V-cRAF binding was calculated according to the following formula: Inhibition Percent = (MaxValue−MeasuredValue)/(MaxValue−Blank) × 100% [formula] […] Curve fitting was performed using GraphPad Prism software to obtain IC50 values, see Table 1.
On the technique in general: BRET reads energy transfer from a luciferase to a nearby fluorophore.

For experiment [1], the system named is KRAS-G12D mutant tumor cells AGS. The experiment in a line: Cell Proliferation Inhibition Assay (AGS), Cell-titer GLO, 96 h. To be noted: Homo sapiens, AGS, 96 h, read-out: AGS(G12D). Here is the method:
KRAS-G12D mutant tumor cells AGS were seeded in low-attachment 96-well plates at a cell density of 1×10^3 cells/well and cultured overnight in a cell culture incubator. […] After incubation at 37°C for 96 h, 50 µL of Cell-titer GLO working solution was added to each well, mixed by shaking, incubated at room temperature for 10 min, and the Luminescence value was read on a multi-function microplate reader. The luminescence data were calculated and converted into inhibition percent. The inhibition percent of cell proliferation was calculated according to the following formula: Inhibition Percent = (MaxValue−MeasuredValue)/(MaxValue−Blank) × 100% [formula] […] Curve fitting was performed using GraphPad Prism software to obtain IC50 values, see Table 1.

The next experiment addresses T2, KRAS G12D-cRAF (Homo sapiens, UniProt P01116, G12D).
T2 construct: expressed in transfected cells
The experiment in a line: Cellular KRAS G12D-cRAF Binding Inhibition Assay (NanoBRET, AD293 stable cells). To be noted: 3 h incubation. The procedure: NanoLuc® luciferase was used as the energy donor, and NanoBRET™ 618 fluorescent ligand labeled with the HaloTag® protein was used as the energy acceptor to detect protein-protein interactions in living cells. AD293 stable cells transfected with KRAS G12D-NanoLuc® luciferase and cRAF RBD-HaloTag® tag protein were seeded in 96-well plates at a cell density of 1×10^4 cells/well. Except for wells with medium added as a blank control, NanoBRET™ 618 fluorescent ligand was added to all other wells, and the plates were cultured overnight in a cell culture incubator. […] The luminescence data were calculated and converted into inhibition percent. The inhibition percent of KRAS G12D-cRAF binding was calculated according to the following formula: Inhibition Percent = (MaxValue−MeasuredValue)/(MaxValue−Blank) × 100% [formula] […] Curve fitting was performed using GraphPad Prism software to obtain IC50 values, see Table 1.

In experiment [2] the test system is KRAS-G12V mutant tumor cells SW620. The experiment is described as follows: Cell Proliferation Inhibition Assay (SW620), Cell-titer GLO, 96 h. As to conditions: Homo sapiens, SW-620, 96 h, read-out: SW620(G12V). The procedure:
KRAS-G12V mutant tumor cells SW620 were seeded in low-attachment 96-well plates at a cell density of 1×10^3 cells/well and cultured overnight in a cell culture incubator. After the cells adhered, the test compounds were added to the 96-well plates at final concentrations of 10000, 2000, 400, 80, 16, 3.2, 0.64, 0.13, 0.03, 0 nM (final concentration of DMSO was 0.5% for all). After incubation at 37°C for 96 h, 50 µL of Cell-titer GLO working solution was added to each well, mixed by shaking, incubated at room temperature for 10 min, and the Luminescence value was read on a multi-function microplate reader. The luminescence data were calculated and converted into inhibition percent. The inhibition percent of cell proliferation was calculated according to the following formula: Inhibition Percent = (MaxValue−MeasuredValue)/(MaxValue−Blank) × 100% [formula]
("Max Value" comes from the 0.5% DMSO control well, "Blank" comes from the blank control well, and "Measured Value" comes from the compound-treated well).
Curve fitting was performed using GraphPad Prism software to obtain IC50 values, see Table 1.

Setting [3] is: AGS cells, 96 h incubation, Cell-titer GLO.
Setting [4] is: SW620 cells, 96 h incubation, Cell-titer GLO.

SMILES strings stand for the structures. Read-outs that look alike come from different tables or passages of the source.

T2 sequence (P01116 1-188 isoform P01116-2 G12D): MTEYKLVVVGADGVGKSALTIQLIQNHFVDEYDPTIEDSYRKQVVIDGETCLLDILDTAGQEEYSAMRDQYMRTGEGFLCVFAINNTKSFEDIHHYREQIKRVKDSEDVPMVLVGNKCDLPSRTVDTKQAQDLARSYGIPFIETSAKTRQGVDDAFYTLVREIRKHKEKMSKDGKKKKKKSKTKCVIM
T1 sequence (P01116 1-188 isoform P01116-2 G12V): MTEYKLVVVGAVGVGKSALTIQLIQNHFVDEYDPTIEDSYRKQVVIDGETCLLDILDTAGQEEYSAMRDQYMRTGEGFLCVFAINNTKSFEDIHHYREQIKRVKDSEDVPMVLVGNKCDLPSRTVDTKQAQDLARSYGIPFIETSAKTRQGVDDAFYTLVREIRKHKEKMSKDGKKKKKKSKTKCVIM

Turning to `C[C@@H]1OCCCn2c(c3c4cc(ccc42)-c2csc(n2)C[C@H](NC(=O)[C@H]2C[C@@H]2C)C(=O)N2CCC[C@H](N2)C(=O)OCC(C)(C)C3)-c2cc(N3CCN(C)CC3)cnc21` [Example 1, (1S,2S)-2-methyl-N-((1^5S,6^3S,4S,Z)-1^5,10,10-trimethyl-1^2-(4-methylpiperazin-1-yl)-5,7-dioxo-1 ^8,1^9,6^1,6^2,6^3,6^4,6^5,6^6-octahydro-1^5H,1^7-oxa-1(13,15)-pyrido[3',2':7,8][1,5]oxazonino[5,6-a]indola-2(4,2)-thiazola-6(1,3)-pyridazinacycloundecaphane-4-yl)cyclopropane-1-carboxamide], the IC50 at KRAS G12V-cRAF (NanoBRET KRAS G12V) was 29.9 nM; in experiment [1], 7.86 nM; on KRAS G12D-cRAF (NanoBRET KRAS G12D), 6.1 nM; in experiment [2], 0.54 nM.
The like results for `C[C@H]1C[C@@H]1C(=O)N[C@H]1Cc2nc(cs2)-c2ccc3c(c2)c(c2n3CCCOCc3ncc(N4CCN(C)CC4)cc3-2)CC(C)(C)COC(=O)[C@@H]2CCCN(N2)C1=O` [Example 2, (1S,2S)-N-((6^3S,4S,Z)-10,10-dimethyl-1^2-(4-methylpiperazin-1-yl)-5,7-dioxo-1^8,1^9,6^1,6^2,6^3,6^4,6^5 ,6^6-octahydro-1^5H,1^7H-8-oxa-1(13,15)-pyrido[3',2':7,8][1,5]oxazonino[5,6-a]indola-2(4,2)-thiazola-6(1,3)-pyridazinacycloundecaphane-4-yl)-2-methylcyclopropane-1-carboxamide] were, in that order, 206 nM, 8.7 nM, 29.1 nM and 1.56 nM.
The like results for `C[C@H]1C[C@@H]1C(=O)N[C@H]1Cc2nc(cs2)-c2ccc3c(c2)c(c2n3[C@@H](C)CCOCc3ncc(N4CCN(C)CC4)cc3-2)CC(C)(C)COC(=O)[C@@H]2CCCN(N2)C1=O` [Example 4, (1S,2S)-2-methyl-N-((1^9S,6^3S,4S,Z)-1^9,10,10-trimethyl-1^2-(4-methylpiperazin-1-yl)-5,7-dioxo-1 ^8,1^9,6^1,6^2,6^3,6^4,6^5,6^6-octahydro-1^5H,1^7H-8-oxa-1(13,15)-pyrido[3',2':7,8][1,5]oxazonino[5,6-a]indola-2(4,2)-thiazola-6(1,3)-pyridazinacycloundecaphane-4-yl)cyclopropane-1-carboxamide] were, in that order, 651 nM, 51.9 nM, 155 nM and 6.2 nM.
The like results for `C[C@@H]1OCC[C@H](C)n2c(c3c4cc(ccc42)-c2csc(n2)C[C@H](NC(=O)[C@H]2C[C@@H]2C)C(=O)N2CCC[C@H](N2)C(=O)OCC(C)(C)C3)-c2cc(N3CCN(C)CC3)cnc21` [Example 5, (1S,2S)-2-methyl-N-((1^5S,1^9S,6^3S,4S,Z)-1^5,1^9,10,10-tetramethyl-1^2-(4-methylpiperazin-1-yl)-5,7-dioxo-1^8,1^9,6^1,6^2,6^3,6^4,6^5,6^6-octahydro-1^5H,1^7H-8-oxa-1(13,15)-pyrido[3',2':7,8][1,5]oxazonino[5,6-a]indola-2(4,2)-thiazola-6(1,3)-pyridazinacycloundecaphane-4-yl)cyclopropane-1-carboxamide] were, in that order, 78.8 nM, 6.92 nM, 25.9 nM and 1.08 nM.
As for `CCN1CCN(c2cnc3c(c2)-c2c4c5cc(ccc5n2CCCOC3C)-c2csc(n2)CC(NC(=O)C2CC2C)C(=O)N2CCCC(N2)C(=O)OCC(C)(C)C4)CC1` [Example 21, (1S,2S)-N-((1^5S,6^3S,4S,Z)-12-(4-ethylpiperazin-1-yl)-1^5,10,10-trimethyl-5,7-dioxo-1^8,1^9,6^1,6^2,6^3 ,6^4,6^5,6^6-octahydro-1^5H,1^7H-8-oxa-1(13,15)-pyrido[3',2':7,8][1,5]oxazonino[5,6-a]indola-2(4,2)-thiazola-6(1,3)-pyridazinacycloundecaphane-4-yl)-2-methylcyclopropane-1-carboxamide], the IC50 was found to be 15.1 nM on KRAS G12V-cRAF (read-out: NanoBRET KRAS G12V), 2.19 nM in experiment [1] (setting [3]), 3.95 nM at KRAS G12D-cRAF (read-out: NanoBRET KRAS G12D) and 1.46 nM in experiment [2] (setting [4]).
`COCCN1CCN(c2cnc3c(c2)-c2c4c5cc(ccc5n2CCCOC3C)-c2csc(n2)CC(NC(=O)C2CC2C)C(=O)N2CCCC(N2)C(=O)OCC(C)(C)C4)CC1` [Example 22, (1S,2S)-N-((1^5S,6^3S,4S,Z)-1^2-(4-(2-methoxyethyl)piperazin-1-yl)-1^5,10,10-trimethyl-5,7-dioxo-1 ^8,1^9,6^1,6^2,6^3,6^4,6^5,6^6-octahydro-1^5H,1^7H-8-oxa-1(13,15)-pyrido[3',2':7,8][1,5]oxazonino[5,6-a]indola-2(4,2)-thiazola-6(1,3)-pyridazinacycloundecaphane-4-yl)-2-methylcyclopropane-1-carboxamide]: the IC50 on KRAS G12V-cRAF (read-out: NanoBRET KRAS G12V) amounted to 22.9 nM; in experiment [1] (setting [3]), 2.62 nM; on KRAS G12D-cRAF (read-out: NanoBRET KRAS G12D), 6.6 nM; in experiment [2] (setting [4]), 1.03 nM.
In the case of `CCN1CCN(c2cnc3c(c2)-c2c4c5cc(ccc5n2CCCOC3C)-c2csc(n2)CC(NC(=O)C23CC(C)(C2)C3)C(=O)N2CCCC(N2)C(=O)OCC(C)(C)C4)CC1` [Example 37, N-((1^5S,6^3S,4S,Z)-1^2-(4-ethylpiperazin-1-yl)-1^5,10,10-trimethyl-5,7-dioxo-1^8,1^9,6^1,6^2,6^3,6^4,6^56^6-octahydro-1^5H,1^7H-8-oxa-1(13,15)-pyrido[3',2':7,8][1,5]oxazonino[5,6-a]indola-2(4,2)-thiazola-6(1,3)-pyridazinacycloundecaphane-4-yl)-3-methylbicyclo[1.1.1]pentane-1-carboxamide], the IC50 is 22.4 nM on KRAS G12V-cRAF (read-out: NanoBRET KRAS G12V), 4.28 nM in experiment [1] (setting [3]), 5.32 nM on KRAS G12D-cRAF (read-out: NanoBRET KRAS G12D) and 1.02 nM in experiment [2] (setting [4]).
The like results for `COCCN1CCN(c2cnc3c(c2)-c2c4c5cc(ccc5n2CCCOC3C)-c2csc(n2)CC(NC(=O)C23CC(C)(C2)C3)C(=O)N2CCCC(N2)C(=O)OCC(C)(C)C4)CC1` [Example 38, N-((1^5S,6^3S,4S,Z)-1^2-(4-(2-methoxyethyl)piperazin-1-yl)-1^5,10,10-trimethyl-5,7-dioxo-1^8,1^9,6^1,6 ^2,6^3,6^4,6^5,6^6-octahydro-1^5H,1^7H-8-oxa-1(13,15)-pyrido[3',2':7,8][1,5]oxazonino[5,6-a]indola-2(4 ,2)-thiazola-6(1,3)-pyridazinacycloundecaphane-4-yl)-3-methylbicyclo[1.1.1]pentane-1-carboxamide] were, in that order, 31.9 nM, 4.2 nM, 8.6 nM and 1.72 nM.
For `CC1OCCCn2c(c3c4cc(ccc42)-c2csc(n2)CC(NC(=O)C24CC(C)(C2)C4)C(=O)N2CCCC(N2)C(=O)OCC(C)(C)C3)-c2cc(N3CCN(CC(F)(F)F)CC3)cnc21` [Example 39, 3-methyl-N-((1^5S,6^3S,4S,Z)-1^5,10,10-trimethyl-5,7-dioxo-1^2-(4-(2,2,2-trifluoroethyl)piperazin-1-yl)-1^8,1^9,6^1,6^2,6^3,6^4,6^5,6^6-octahydro-1^5H,1^7H-8-oxa-1(13,15)-pyrido[3',2':7,8][1,5]oxazonino[5,6-a]indola-2(4,2)-thiazola-6(1,3)-pyridazinacycloundecaphane-4-yl)bicyclo[1.1.1]pentane-1-carbo xamide], the IC50 came to 86.4 nM on KRAS G12V-cRAF (read-out: NanoBRET KRAS G12V), 33.7 nM in experiment [1] (setting [3]), 22.1 nM at KRAS G12D-cRAF (read-out: NanoBRET KRAS G12D) and 8.17 nM in experiment [2] (setting [4]).

(Values after patent EP4800018A1, “PAN-KRAS INHIBITOR AND USE THEREOF IN MEDICINES” (Betta Pharmaceuticals Co., Ltd., priority 2023, dated 2025).)
